Data reported in patent publication US20210007356A1, “IMIDE DERIVATIVE AND FUNGICIDE CONTAINING SAID DERIVATIVE AS ACTIVE INGREDIENT” (HOKKO CHEMICAL INDUSTRY CO., LTD., priority 2018, published 2021).
Like-named read-outs stand apart in the source and are kept apart here.

What was measured:
[1] = tested on: rice sheath blight fungus (Thanatephorus cucumeris); experiment: Test Example 8: control effect against rice sheath blight by box treatment (granule); conditions: 5 g of granule on nursery box, paddy rice; inoculated after 3 weeks; 7 days after inoculation
[2] = tested on: rice sheath blight fungus (Thanatephorus cucumeris); experiment: Test Example 10: control effect against rice sheath blight by water surface application (flowable formulation); conditions: flowable 1,000 ppm, 1 mL dripped in paddy water, inoculated after 1 week, 7 days after inoculation
[3] = tested on: rice sheath blight fungus (Thanatephorus cucumeris); experiment: Test Example 6: control effect against rice sheath blight by box treatment (flowable formulation); conditions: flowable 5,000 ppm, 50 mL irrigation of nursery box, paddy rice; inoculated after 3 weeks; 7 days after inoculation
[4] = tested on: barley powdery mildew fungus (Erysiphe graminis); experiment: Test Example 2: control effect against barley powdery mildew by foliage application; assay type: in vivo; conditions: wettable powder diluted to 100 ppm, 10 mL per pot foliage spray on barley; inoculated day after; 7 days after inoculation
[5] = tested on: rice blast fungus (Pyricularia grisea); assay type: in vivo; conditions: flowable 5,000 ppm, 50 mL irrigation of nursery box, paddy rice; inoculated after 3 weeks; 7 days after inoculation
[6] = tested on: rice blast fungus (Pyricularia grisea); assay type: in vivo; conditions: 5 g of granule on nursery box, paddy rice; inoculated after 3 weeks; 7 days after inoculation
[7] = tested on: rice blast fungus (Pyricularia grisea); assay type: in vivo; conditions: flowable 1,000 ppm, 1 mL dripped in paddy water, inoculated after 1 week, 7 days after inoculation

Compound	evaluation value of control effect (from control value, lesion height) [1]	evaluation value of control effect (from control value, lesion height) [2]	evaluation value of control effect (from control value, lesion height) [3]	evaluation value of control effect (from control value, lesion area percentage) [4]	evaluation value of control effect (from control value, number of lesions) [5]	evaluation value of control effect (from control value, number of lesions) [6]	evaluation value of control effect (from control value, number of lesions) [7]
Cc1nc(C(F)(F)F)c(C(=O)N(C(=O)c2snnc2C)c2c(Br)cc(OC(F)(F)F)cc2Br)s1 [7-280]	5	5	5	4	5	5	5
Cc1nc(C(F)(F)F)c(C(=O)N(C(=O)c2snnc2C(F)F)c2c(Br)cc(OC(F)(F)F)cc2Br)s1 [7-281]	5	5	5	4	5	5	5
Cc1nc(C(F)(F)F)c(C(=O)N(C(=O)c2scnc2C(F)F)c2c(Br)cc(OC(F)(F)F)cc2Br)s1 [7-283]	5	5	5	4	5	5	5
Cc1nc(C(F)F)c(C(=O)N(C(=O)c2cc(F)nc(F)c2)c2ccccc2C(C)CC(C)C)s1 (stereo not shown) [7-288]	5	5	5	4	5	5	5
Cc1nnsc1C(=O)N(C(=O)c1cccnc1C(F)F)c1ccccc1C(C)CC(C)C (stereo not shown) [13-10]	5	5	5	5	5	5	5
CC(C)CC(C)c1ccccc1N(C(=O)c1cccnc1C(F)F)C(=O)c1cccc2nnsc12 (stereo not shown) [13-16]	5	5	5	4	5	5	5
CC(C)CC(C)c1ccccc1N(C(=O)c1cccnc1C(F)F)C(=O)c1onc(Cl)c1Cl (stereo not shown) [13-49]	5	5	5	5	5	5	5
CC(C)CC(C)c1ccccc1N(C(=O)c1cccnc1Cl)C(=O)c1snc(Cl)c1Cl (stereo not shown) [13-53]	5	5	5	4	5	5	5
CC(C)CC(C)c1sccc1N(C(=O)c1cccnc1C(F)F)C(=O)c1snc(Cl)c1Cl (stereo not shown) [18-2]	5	5	5	5	5	5	5
Cc1nnsc1C(=O)N(C(=O)c1cccnc1C(F)F)c1ccsc1C(C)CC(C)C (stereo not shown) [18-8]	5	5	5	5	5	5	5
CC1OC(C)(C)c2cccc(N(C(=O)c3cn(C)nc3C(F)F)C(=O)c3snc(Cl)c3Cl)c21 (stereo not shown) [25-10]	5	5	5	4	5	5	5
CC1OC(C)(C)c2cccc(N(C(=O)c3cn(C)nc3C(F)F)C(=O)c3cccc4nnsc34)c21 (stereo not shown) [25-74]	5	5	5	4	5	5	5
CC1OC(C)(C)c2cccc(N(C(=O)c3cn(C)nc3C(F)F)C(=O)c3onc(Cl)c3Cl)c21 (stereo not shown) [25-114]	5	5	5	4	5	5	5
Cc1nc(C(F)F)c(C(=O)N(C(=O)c2snc(Cl)c2Cl)c2cccc3c2C(C)OC3(C)C)s1 (stereo not shown) [26-14]	5	5	5	4	5	5	5
Cc1nc(C(F)F)c(C(=O)N(C(=O)c2snnc2C(F)F)c2cccc3c2C(C)CC3(C)C)s1 (stereo not shown) [26-57]	5	5	5	4	5	5	5
Cc1nc(C(F)F)c(C(=O)N(C(=O)c2cccc3nnsc23)c2cccc3c2C(C)OC3(C)C)s1 (stereo not shown) [26-62]	5	5	5	4	5	5	5
